Measurements as given in the supplement of paper PMC11150407.
± gives the standard deviation of the averaged measurements.

Tests used:
Experiment in all cases: cell viability relative to vehicle (fraction); higher = less inhibition
Settings in all cases: 72 h
PR#0023 = tested on: PR#0023
Protocol: (§1)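 Primary 3q26 AML patient cells were treated for 72 h with AR-42, belinostat or entinostat (0.01-2 uM, 2-fold dilutions), in duplicate. Viability was measured by ATP-based luminescence and normalised to vehicle, given as a fraction.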

PR#0024 = tested on: PR#0024
Protocol: as §1

PR#002 = tested on: PR#002
Protocol: as §1

PR#003 = tested on: PR#003
Protocol: as §1

PR#004 = tested on: PR#004
Protocol: as §1

PR#005 = tested on: PR#005
Protocol: as §1

PR#006 = tested on: PR#006
Protocol: as §1

PR#007 = tested on: PR#007
Protocol: as §1

PR#008 = tested on: PR#008
Protocol: as §1

CC(C)[C@H](C(=O)Nc1ccc(C(=O)NO)cc1)c1ccccc1 [AR-42]
cell viability
Settings	PR#002	PR#003	PR#004	PR#005	PR#006	PR#007	PR#008	PR#0023	PR#0024
0.016 µM	1 ± 0.1	1.01 ± 0.037	0.809 ± 0.13	0.962 ± 0.41	0.936 ± 0.11	0.988 ± 0.034	0.553 ± 0.13	0.955 ± 0.074	0.953 ± 0.032
0.031 µM	0.938 ± 0.15	0.853 ± 0.069	0.646 ± 0.061	0.977 ± 0.38	0.904 ± 0.038	1.0115 ± 0.00017	0.434 ± 0.019	0.984 ± 0.082	0.81 ± 0.024
0.0625 µM	0.855 ± 0.12	0.797 ± 0.07	0.417 ± 0.02	0.833 ± 0.34	0.902 ± 0.042	1.01 ± 0.033	0.3 ± 0.019	0.675 ± 0.17	0.67 ± 0.041
0.125 µM	0.792 ± 0.025	0.503 ± 0.013	0.248 ± 0.004	0.991 ± 0.28	0.552 ± 0.032	0.872 ± 0.051	0.199 ± 0.022	0.785 ± 0.082	0.4575 ± 0.0044
0.25 µM	0.508 ± 0.034	0.247 ± 0.021	0.132 ± 0.0094	0.928 ± 0.056	0.367 ± 0.041	0.748 ± 0.031	0.0865 ± 0.0096	0.441 ± 0.27	0.259 ± 0.02
0.5 µM	0.124 ± 0.0084	0.0952 ± 0.013	0.0759 ± 0.001	0.239 ± 0.01	0.104 ± 0.016	0.443 ± 0.0055	0.0168 ± 0.00084	0.4779 ± 0.0025	0.127 ± 0.0071
1 µM	0.0233 ± 0.00057	0.0399 ± 0.0043	0.0688 ± 0.0021	0.0777 ± 0.009	0.0486 ± 0.0015	0.155 ± 0.0046	0.0142 ± 0.00051	0.116 ± 0.0047	0.0553 ± 0.0038
2 µM	0.01971 ± 9.6e-05	0.0313 ± 0.0015	0.0591 ± 0.0037	0.0322 ± 0.0007	0.0395 ± 0.0067	0.0706 ± 0.002	0.016 ± 0.00068	0.0583 ± 0.0041	0.0347 ± 0.00063

O=C(/C=C/c1cccc(S(=O)(=O)Nc2ccccc2)c1)NO [Belinostat]
cell viability
Settings	PR#002	PR#003	PR#004	PR#005	PR#006	PR#007	PR#008	PR#0023	PR#0024
0.016 µM	1.22 ± 0.37	1.12 ± 0.035	0.978 ± 0.14	0.798 ± 0.076	1.048 ± 0.0093	0.981 ± 0.018	0.643 ± 0.032	0.933 ± 0.01	0.97 ± 0.059
0.031 µM	1.08 ± 0.21	1.12 ± 0.04	0.967 ± 0.043	0.698 ± 0.033	0.987 ± 0.09	0.961 ± 0.012	0.642 ± 0.051	0.917 ± 0.043	0.882 ± 0.066
0.0625 µM	1.01 ± 0.2	0.9713 ± 0.0041	0.7834 ± 0.0059	0.979 ± 0.49	0.941 ± 0.014	0.897 ± 0.027	0.468 ± 0.0074	0.893 ± 0.02	0.77 ± 0.027
0.125 µM	1.01 ± 0.087	0.874 ± 0.043	0.577 ± 0.021	0.871 ± 0.34	0.729 ± 0.032	0.854 ± 0.02	0.391 ± 0.016	0.8339 ± 0.00086	0.609 ± 0.014
0.25 µM	0.902 ± 0.072	0.562 ± 0.055	0.326 ± 0.023	0.524 ± 0.082	0.481 ± 0.042	0.717 ± 0.084	0.247 ± 0.069	0.777 ± 0.011	0.363 ± 0.013
0.5 µM	0.492 ± 0.012	0.3 ± 0.019	0.125 ± 0.007	0.404 ± 0.067	0.177 ± 0.016	0.4339 ± 0.0043	0.0828 ± 0.00094	0.611 ± 0.02	0.184 ± 0.013
1 µM	0.114 ± 0.003	0.0978 ± 0.0068	0.0685 ± 0.006	0.108 ± 0.031	0.0585 ± 0.0093	0.173 ± 0.028	0.0197 ± 0.00079	0.325 ± 0.017	0.0781 ± 0.0048
2 µM	0.0243 ± 0.0013	0.0452 ± 0.0024	0.0602 ± 0.0023	0.0361 ± 0.001	0.035 ± 0.0027	0.0759 ± 0.0039	0.0115 ± 0.002	0.0655 ± 0.0071	0.0477 ± 0.0022

Nc1ccccc1NC(=O)c1ccc(CNC(=O)OCc2cccnc2)cc1 [Entinostat]
cell viability
Settings	PR#002	PR#003	PR#004	PR#005	PR#006	PR#007	PR#008	PR#0023	PR#0024
0.016 µM	1.02 ± 0.23	0.949 ± 0.045	0.78 ± 0.048	1.04 ± 0.43	0.961 ± 0.19	0.934 ± 0.034	0.764 ± 0.033	0.932 ± 0.053	1.08 ± 0.19
0.031 µM	0.94 ± 0.23	1 ± 0.2	0.673 ± 0.033	0.625 ± 0.034	0.813 ± 0.077	0.903 ± 0.027	0.691 ± 0.045	0.923 ± 0.025	1.02 ± 0.15
0.0625 µM	0.869 ± 0.2	0.91 ± 0.12	0.472 ± 0.04	0.534 ± 0.033	0.731 ± 0.026	0.938 ± 0.037	0.49 ± 0.092	0.806 ± 0.019	0.924 ± 0.045
0.125 µM	0.736 ± 0.13	0.735 ± 0.024	0.298 ± 0.0035	0.437 ± 0.019	0.555 ± 0.054	0.918 ± 0.019	0.303 ± 0.0084	0.7626 ± 0.002	0.827 ± 0.051
0.25 µM	0.593 ± 0.013	0.536 ± 0.013	0.183 ± 0.033	0.475 ± 0.22	0.434 ± 0.076	0.778 ± 0.016	0.186 ± 0.029	0.6886 ± 0.0064	0.682 ± 0.041
0.5 µM	0.396 ± 0.055	0.281 ± 0.052	0.1099 ± 0.00028	0.203 ± 0.043	0.2018 ± 0.00028	0.666 ± 0.048	0.0771 ± 0.0027	0.589 ± 0.034	0.516 ± 0.017
1 µM	0.0907 ± 0.026	0.115 ± 0.018	0.0717 ± 0.01	0.06904 ± 0.00018	0.115 ± 0.017	0.345 ± 0.0048	0.0229 ± 0.0033	0.423 ± 0.041	0.285 ± 0.017
2 µM	0.0309 ± 0.00074	0.0591 ± 0.0028	0.0662	0.0415 ± 0.0016	0.065 ± 0.0079	0.168 ± 0.0027	0.00956 ± 0.0026	0.183 ± 0.029	0.14 ± 0.0072
